Calls of active or inactive are those of the source.
Assays:
Jurkat = assay: SAR Analysis of small molecule inhibitors of […] specific antigen receptor-induced NF-kB activation in a Jurkat cell line using a luminescence assay - Set 3. [Related pubchem assays (depositor defined):AID435022, AID435025, AID465]; format: functional, cell-based; conditions: Homo sapiens
HEK293 [1] = assay: SAR Analysis of small molecule inhibitors of B-cell specific antigen receptor-induced NF-kB activation in a HEK-293T cell line using a luminescence assay - Set 2. [Related pubchem assays (depositor defined):AID435022, AID435025, AID489021]; format: functional, cell-based; conditions: Homo sapiens
HEK293 [2] = assay: cytotoxicity in HEK293T NF-kB-Luc cells, SAR follow-up, cytotoxicity control for NF-kB activator project, cell-based, resazurin fluorescence (AID 493251); format: functional; conditions: Homo sapiens
MEF = assay: SAR analysis of small molecule cytotoxicity of MazEF TA System activators in embryonic fibroblast (MEF) cells. [Related pubchem assays (depositor defined):AID504720, AID504743]; format: functional; conditions: Mus musculus
[3] = target: T1, Endoribonuclease toxin MazF (Escherichia coli K-12, UniProt P0AE70); assay: SAR analysis of small molecule activators of the MazEF TA System via a fluorescence-based single-stranded RNase assay counterscreen. [Related pubchem assays (depositor defined):AID504720, AID504743]; format: functional
T1 sequence (P0AE70 whole entry): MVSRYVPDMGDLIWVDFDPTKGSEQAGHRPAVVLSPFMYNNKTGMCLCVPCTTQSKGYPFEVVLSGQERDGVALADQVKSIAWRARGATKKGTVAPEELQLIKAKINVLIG

[4] = target: T1, Endoribonuclease toxin MazF; assay: fluorescent RNA oligo signal without MazF, dose response, counter-screen for MazEF activator project, biochemical, fluorescence, single-stranded RNase substrate (AID 588502); format: functional
[5] = target: T1, Endoribonuclease toxin MazF; assay: MazF toxin RNase activators, dose response, biochemical, fluorescence, single-stranded RNA substrate, uHTS hits (AID 588481); format: functional
[6] = target: T1, Endoribonuclease toxin MazF; assay: MazF endoribonuclease activators, SAR follow-up, biochemical, fluorescence, single-stranded RNA substrate (AID 588603); format: functional
[7] = target: T2, Sentrin-specific protease 7 (Homo sapiens, UniProt Q9BQF6); format: functional;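 also: Luminescence-based dose-response confirmation of ultra-high-throughput screening hits, measuring inhibition of SENP7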
T2 sequence (Q9BQF6 whole entry): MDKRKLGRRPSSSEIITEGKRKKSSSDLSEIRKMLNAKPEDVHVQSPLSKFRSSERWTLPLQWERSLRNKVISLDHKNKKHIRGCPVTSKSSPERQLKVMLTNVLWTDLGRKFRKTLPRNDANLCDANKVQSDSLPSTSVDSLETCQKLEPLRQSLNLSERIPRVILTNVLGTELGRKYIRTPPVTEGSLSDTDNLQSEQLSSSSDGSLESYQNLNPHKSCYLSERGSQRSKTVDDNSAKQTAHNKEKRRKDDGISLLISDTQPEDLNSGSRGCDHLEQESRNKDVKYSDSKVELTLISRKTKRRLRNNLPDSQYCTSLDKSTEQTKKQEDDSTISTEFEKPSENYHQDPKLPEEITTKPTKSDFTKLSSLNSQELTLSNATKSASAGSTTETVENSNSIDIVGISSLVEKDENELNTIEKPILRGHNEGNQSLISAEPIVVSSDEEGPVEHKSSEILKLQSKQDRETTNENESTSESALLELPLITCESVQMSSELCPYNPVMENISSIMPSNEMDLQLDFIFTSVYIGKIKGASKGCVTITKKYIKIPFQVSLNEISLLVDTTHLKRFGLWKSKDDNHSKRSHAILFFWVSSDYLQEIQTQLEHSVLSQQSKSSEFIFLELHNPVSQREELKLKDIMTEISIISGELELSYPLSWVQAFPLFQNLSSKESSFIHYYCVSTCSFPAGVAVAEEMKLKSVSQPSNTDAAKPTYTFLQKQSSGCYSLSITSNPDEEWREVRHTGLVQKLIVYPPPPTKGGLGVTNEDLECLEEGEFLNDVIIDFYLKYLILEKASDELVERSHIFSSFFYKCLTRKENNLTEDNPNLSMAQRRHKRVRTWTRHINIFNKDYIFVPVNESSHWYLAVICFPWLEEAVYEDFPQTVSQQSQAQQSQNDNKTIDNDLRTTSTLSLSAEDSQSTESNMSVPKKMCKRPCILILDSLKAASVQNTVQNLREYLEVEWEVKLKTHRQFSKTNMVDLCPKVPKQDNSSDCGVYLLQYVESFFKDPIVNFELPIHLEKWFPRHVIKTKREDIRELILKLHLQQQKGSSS

[8] = target: T3, Sentrin-specific protease 6 (Homo sapiens, UniProt Q9GZR1); format: functional;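 also: Luminescence-based dose-response confirmatory assay of SENP6 inhibition, following up an ultra-high-throughput screen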
T3 sequence (Q9GZR1 whole entry): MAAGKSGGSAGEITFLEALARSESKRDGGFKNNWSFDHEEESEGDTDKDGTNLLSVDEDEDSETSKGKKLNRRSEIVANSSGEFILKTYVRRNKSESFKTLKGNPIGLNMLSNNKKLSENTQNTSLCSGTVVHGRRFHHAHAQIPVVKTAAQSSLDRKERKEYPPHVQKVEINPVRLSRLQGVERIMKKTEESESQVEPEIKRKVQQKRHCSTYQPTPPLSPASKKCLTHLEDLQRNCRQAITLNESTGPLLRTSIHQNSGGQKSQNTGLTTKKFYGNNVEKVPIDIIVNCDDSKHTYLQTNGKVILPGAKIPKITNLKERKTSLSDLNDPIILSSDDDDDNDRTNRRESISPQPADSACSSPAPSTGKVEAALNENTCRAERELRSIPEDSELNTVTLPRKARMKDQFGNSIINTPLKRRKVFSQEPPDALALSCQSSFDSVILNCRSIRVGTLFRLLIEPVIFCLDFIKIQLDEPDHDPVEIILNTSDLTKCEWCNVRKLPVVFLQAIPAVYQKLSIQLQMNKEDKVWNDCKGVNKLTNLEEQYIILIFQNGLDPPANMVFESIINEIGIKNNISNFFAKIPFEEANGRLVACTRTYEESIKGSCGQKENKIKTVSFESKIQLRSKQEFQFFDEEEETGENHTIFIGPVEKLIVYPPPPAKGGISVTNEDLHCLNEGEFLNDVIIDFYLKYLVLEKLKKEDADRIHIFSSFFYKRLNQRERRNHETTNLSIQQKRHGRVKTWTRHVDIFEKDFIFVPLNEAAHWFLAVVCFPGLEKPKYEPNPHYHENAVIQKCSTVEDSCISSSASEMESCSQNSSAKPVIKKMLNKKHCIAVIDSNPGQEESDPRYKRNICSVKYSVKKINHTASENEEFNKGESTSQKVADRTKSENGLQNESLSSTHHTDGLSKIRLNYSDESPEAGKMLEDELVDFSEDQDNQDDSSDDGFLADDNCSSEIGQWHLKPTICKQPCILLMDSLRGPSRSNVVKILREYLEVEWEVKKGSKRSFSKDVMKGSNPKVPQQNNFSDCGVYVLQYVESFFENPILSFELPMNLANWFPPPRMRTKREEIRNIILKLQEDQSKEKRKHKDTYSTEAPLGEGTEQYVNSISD

Caspase-3 = target: T4, Caspase-3 (Homo sapiens, UniProt P42574); format: functional;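 also: Dose-response selectivity test against caspase-3 for candidate inhibitors of sentrin-specific proteases (SENPs)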
T4 sequence (P42574 whole entry): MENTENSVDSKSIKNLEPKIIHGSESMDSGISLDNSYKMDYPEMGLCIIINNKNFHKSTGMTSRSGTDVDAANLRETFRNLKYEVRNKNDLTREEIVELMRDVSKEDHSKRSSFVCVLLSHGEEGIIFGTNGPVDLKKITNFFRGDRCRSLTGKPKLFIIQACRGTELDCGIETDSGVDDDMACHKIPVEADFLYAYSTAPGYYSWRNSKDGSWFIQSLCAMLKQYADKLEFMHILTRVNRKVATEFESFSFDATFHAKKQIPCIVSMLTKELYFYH

[9] = target: T5, Sentrin-specific protease 8 (Homo sapiens, UniProt Q96LD8); format: functional;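 also: luminescence read-out of SENP8 inhibition, dose-response confirmation following an ultra-high-throughput screen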
T5 sequence (Q96LD8 whole entry): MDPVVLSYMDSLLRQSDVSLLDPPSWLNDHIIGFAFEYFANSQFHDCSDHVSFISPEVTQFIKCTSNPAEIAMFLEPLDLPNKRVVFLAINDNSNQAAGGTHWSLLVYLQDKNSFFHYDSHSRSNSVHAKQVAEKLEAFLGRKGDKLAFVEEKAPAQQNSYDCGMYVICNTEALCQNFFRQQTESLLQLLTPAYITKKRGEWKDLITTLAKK

[10] = target: T6, Nuclear receptor subfamily 0 group B member 1 (Homo sapiens, UniProt P51843); assay: Luminescence-based cell-based high throughput dose response assay for inhibitors of the orphan nuclear receptor subfamily 0, group B, member 1 (DAX1; NR0B1). [Related pubchem assays (depositor defined):AID504766, AID504790]; format: functional
T6 sequence (P51843 whole entry): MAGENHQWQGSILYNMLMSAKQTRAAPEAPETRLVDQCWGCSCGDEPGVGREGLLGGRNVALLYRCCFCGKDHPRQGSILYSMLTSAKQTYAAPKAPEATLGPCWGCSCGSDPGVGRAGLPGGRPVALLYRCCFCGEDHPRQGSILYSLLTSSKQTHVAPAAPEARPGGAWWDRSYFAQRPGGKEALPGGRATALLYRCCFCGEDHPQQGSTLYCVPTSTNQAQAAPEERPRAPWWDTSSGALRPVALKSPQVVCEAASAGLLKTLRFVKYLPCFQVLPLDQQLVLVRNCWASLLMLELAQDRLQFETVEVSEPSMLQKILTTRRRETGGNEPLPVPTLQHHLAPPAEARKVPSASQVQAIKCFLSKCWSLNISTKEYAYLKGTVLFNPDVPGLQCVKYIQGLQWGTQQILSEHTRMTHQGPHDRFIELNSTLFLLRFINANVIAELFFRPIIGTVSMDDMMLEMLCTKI

HEK293 [11] = assay: cells; format: functional, cell-based; conditions: Homo sapiens
[12] = test system: Streptococcus sp. 'group A'; assay: growth inhibition of control SK(-) GAS strain, dose response, counter-screen for streptokinase expression inhibitor project, luminescence, kanamycin, BacTiterGlo, confirmation (AID 1900); format: functional, organism-based
Streptococcus = assay: Group A Streptococcus viability loss, dose response, counter-screen for streptokinase expression inhibitor project, luminescence, BacTiterGlo (AID 1915); format: functional, organism-based;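 also: potency for reduction of bacterial viability or growth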
Cysteine protease ATG4B = Cysteine protease ATG4B (Homo sapiens, UniProt Q9Y4P1); format: functional;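 also: Fluorescence-based dose-response confirmation assay measuring inhibition of ATG4B activity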
Phospholipase A2 = Phospholipase A2 (Homo sapiens, UniProt P04054); format: functional;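 also: confirmatory dose-response counterscreen on phospholipase A2, testing hits that came from an ultra-high-throughput screen for ATG4B inhibitors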
Streptokinase A = target: T7, Streptokinase A (Streptococcus pyogenes serotype M1, UniProt P10520); assay: S. pyogenes streptokinase expression inhibitors, potency, dose response, plasminogen activation absorbance, OD405 (AID 1914); format: functional, Streptococcus pyogenes M1 GAS;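 also: secreted streptokinase activity via plasminogen activation per viability signal from cell pellet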
T7 sequence (P10520 whole entry): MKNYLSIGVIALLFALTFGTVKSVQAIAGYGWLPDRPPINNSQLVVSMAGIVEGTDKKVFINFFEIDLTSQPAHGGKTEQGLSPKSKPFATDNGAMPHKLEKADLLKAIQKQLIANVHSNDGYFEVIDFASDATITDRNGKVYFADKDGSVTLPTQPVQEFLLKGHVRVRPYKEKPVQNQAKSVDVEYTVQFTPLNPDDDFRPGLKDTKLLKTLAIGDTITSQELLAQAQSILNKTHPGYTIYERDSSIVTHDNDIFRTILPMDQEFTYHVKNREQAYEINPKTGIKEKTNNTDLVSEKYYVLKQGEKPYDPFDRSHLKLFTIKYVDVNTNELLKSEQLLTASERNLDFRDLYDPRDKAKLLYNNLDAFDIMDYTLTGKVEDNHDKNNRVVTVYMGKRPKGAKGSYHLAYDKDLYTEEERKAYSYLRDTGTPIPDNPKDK

Phospholipase A2, sequence (P04054 whole entry): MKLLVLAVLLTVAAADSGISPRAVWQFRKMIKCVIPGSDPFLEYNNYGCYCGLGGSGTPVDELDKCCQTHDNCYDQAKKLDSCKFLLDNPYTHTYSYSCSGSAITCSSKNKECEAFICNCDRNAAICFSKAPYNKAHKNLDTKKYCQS
Cysteine protease ATG4B, sequence (Q9Y4P1 whole entry): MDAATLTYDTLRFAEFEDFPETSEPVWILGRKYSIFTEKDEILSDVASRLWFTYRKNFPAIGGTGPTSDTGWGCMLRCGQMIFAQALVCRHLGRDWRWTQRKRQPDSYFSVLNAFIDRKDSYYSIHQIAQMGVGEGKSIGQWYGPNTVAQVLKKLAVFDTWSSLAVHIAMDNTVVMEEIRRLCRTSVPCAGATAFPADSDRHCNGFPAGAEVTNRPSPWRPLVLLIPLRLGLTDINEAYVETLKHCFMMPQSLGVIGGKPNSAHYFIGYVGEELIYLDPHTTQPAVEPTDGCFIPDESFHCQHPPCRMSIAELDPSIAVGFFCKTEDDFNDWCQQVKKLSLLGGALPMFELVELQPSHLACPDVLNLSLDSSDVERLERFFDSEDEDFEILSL

`CCOc1ccc(-c2nc(CSCC(=O)NCc3ccc(C)cc3)c(C)o2)cc1` was tested, and the IC50 (Jurkat) was 48.9 µM (inactive), the IC50 (HEK293 [1]) was > 80 µM (inactive) and the IC50 (HEK293 [2]) was > 80 µM (inactive).
In the case of `C=CCNC(=O)CCc1nc(-c2ccc(C(C)(C)C)cc2)no1`, the IC50 (Jurkat) is reported as 25.2 µM (inactive), the IC50 (HEK293 [1]) is reported as 5.3 µM (active) and the IC50 (HEK293 [2]) is reported as > 80 µM (inactive).
With `Cc1[nH]c2ccccc2c1/C=C/c1nc2ccccc2c(=O)n1-c1ccc([N+](=O)[O-])cc1` the CC50 (MEF) was > 99 µM (inactive), the EC50 [3] was > 99 µM (inactive) and the EC50 [4] was > 99 µM (inactive). The EC50 [5] was > 99 µM (inactive) and the EC50 [6] was > 99 µM (inactive).
For `CCSc1nnc(NC(=O)c2ccc(C)cc2)s1`, the IC50 [7] was 9.7 µM (active), the IC50 [8] was > 100 µM (inactive) and the IC50 (Caspase-3) was 28 µM (active). The IC50 [9] was > 100 µM (inactive).
In the case of `Cc1ccc2[nH]c(-c3ccc(NC(=O)c4ccco4)cc3)nc2c1`, the IC50 [7] is reported as 6.23 µM (active), the IC50 [8] is reported as > 100 µM (inactive) and the IC50 (Caspase-3) is reported as 29.6 µM (active). The IC50 [9] was 30.8 µM (active).
`C/C(=N\NC(=S)NC1CCCCC1)c1ccc(Cl)c(Cl)c1` was tested, and the IC50 [10] was > 67.5 µM (inactive) and the IC50 (HEK293 [11]) was > 67.5 µM (inactive).
In the case of `O=[N+]([O-])c1ccc(S(=O)(=O)N/N=C/c2c[nH]c3ccccc23)cc1`, the CC50 (MEF) is reported as > 99 µM (inactive), the EC50 [3] is reported as > 99 µM (inactive) and the EC50 [6] is reported as 56.8 µM (inactive).
With `COc1ccccc1/C=N\Nc1ccccc1[N+](=O)[O-]` the IC50 [10] was > 67.6 µM (inactive) and the IC50 (HEK293 [11]) was > 67.6 µM (inactive).
In the case of `COC(=O)/C=C1\SC(Nc2ccc(Cl)c(Cl)c2)=NC1=O`, the EC50 [12] is reported as 10 µM (active), the EC50 (Streptococcus) is reported as 16.9 µM (active) and the IC50 (Cysteine protease ATG4B) is reported as 16.9 µM (active). For the same compound, the IC50 (Phospholipase A2) was 11 µM (active) and the EC50 (Streptokinase A) was 15.4 µM (active).

— ChEMBL document CHEMBL1201862, “PubChem BioAssay data set” (2004)
